From publication PMC10945556, “Design, Synthesis, and Antifungal Activity of 3-Substituted-2(5H)-Oxaboroles” (ACS Medicinal Chemistry Letters, 2024)
Converted amounts (≈) assume the structure as drawn.

Key:
C. albicans = test: MIC, microbroth dilution; assay type: cell-based, Candida albicans
[1] = test system: Methicillin resistant Staphylococcus aureus; test: MIC, microbroth dilution; assay type: cell-based; details: S. aureus (MRSA)
A. flavus = test: MIC, dose-dependent solid media assay; assay type: cell-based, Aspergillus flavus
E. coli = test: MIC, microbroth dilution; assay type: cell-based, Escherichia coli
B. cereus = test: MIC, microbroth dilution; assay type: cell-based, Bacillus cereus
T. mentagrophytes = test: MIC, dose-dependent solid media assay; assay type: cell-based, Trichophyton mentagrophytes
P. aeruginosa = test: MIC, microbroth dilution; assay type: cell-based, Pseudomonas aeruginosa
P. chrysogenum = test: MIC, dose-dependent solid media assay; assay type: cell-based, Penicillium chrysogenum
S. cerevisiae = test: MIC, microbroth dilution; assay type: cell-based, Saccharomyces cerevisiae
[2] = Candida albicans, value in parentheses
[3] = Staphylococcus aureus, value in parentheses
[4] = Aspergillus flavus, value in parentheses
[5] = Escherichia coli, value in parentheses
[6] = Bacillus cereus, value in parentheses
[7] = Trichophyton mentagrophytes, value in parentheses
[8] = Pseudomonas aeruginosa, value in parentheses
[9] = Penicillium chrysogenum, value in parentheses
[10] = Saccharomyces cerevisiae, value in parentheses

Structure (SMILES) | MIC (C. albicans; Candida albicans) [µg/mL] | MIC (C. albicans; [2]) [µM] | MIC ([1]; Staphylococcus aureus) [µg/mL] | MIC [1, 3] [µM] | MIC (A. flavus; Aspergillus flavus) [µg/mL] | MIC (A. flavus; [4]) [µM] | MIC (E. coli; Escherichia coli) [µg/mL] | MIC (E. coli; [5]) [µM] | MIC (B. cereus; Bacillus cereus) [µg/mL] | MIC (B. cereus; [6]) [µM] | MIC (T. mentagrophytes; Trichophyton mentagrophytes) [µg/mL] | MIC (T. mentagrophytes; [7]) [µM] | MIC (P. aeruginosa; Pseudomonas aeruginosa) [µg/mL] | MIC (P. aeruginosa; [8]) [µM] | MIC (P. chrysogenum; Penicillium chrysogenum) [µg/mL] | MIC (P. chrysogenum; [9]) [µM] | MIC (S. cerevisiae; Saccharomyces cerevisiae) [µg/mL] | MIC (S. cerevisiae; [10]) [µM] | other results
OB1OCC=C1c1cccc(Cl)c1 [Compound 6f] | > 50 | > 258 | > 50 | > 258 | 25 | 129 | > 50 | > 258 | > 50 | > 258 | 25 | 129 | > 50 | > 258 | 12.5 | 64.4 | 21 ± 4 | 108 | 
OB1OCC=C1c1ccc(OC(F)(F)F)cc1 [Compound 6m] | > 50 | > 205 | > 50 | > 205 | 50 | 205 | > 50 | > 205 | > 50 | > 205 | 50 | 205 | > 50 | > 205 | 12.5 | 51.2 | 29 ± 11 | 119 | 
OB1OCc2cc(F)ccc21 [Compound 1, tavaborole, reference compound] | 2.3 ± 0.8 | 15.1 | ~50 | > 329 | 0.78 | 5.14 | 17 ± 4 | 112 | > 50 | > 329 | 0.78 | 5.14 | > 50 | > 329 | 1 ± 0.3 | 6.58 | 0.26 ± 0.06 | 1.71 | 
COc1cccc(C2=CCOB2O)c1 [Compound 6o] | > 50 | > 263 | > 50 | > 263 | > 50 | > 263 | > 50 | > 263 | > 50 | > 263 | > 50 | > 263 | > 50 | > 263 | 50 | 263 | 50 | 263 | 
C[C@@H]1[C@H](O)[C@@H](C)/C=C/C=C/CC/C=C/C=C/C=C/C=C/C(O[C@H]2O[C@H](C)[C@@H](O)[C@H](N)[C@@H]2O)CC2O[C@](O)(CC(O)C(O)CCC(O)CC(O)CC(O)CC(=O)O[C@H]1C)CC(O)C2C(=O)O (some centres unmarked) [Nystatin, reference compound] |  |  |  |  |  |  |  |  |  |  |  |  |  |  |  |  |  |  | MIC CA (C. albicans): 0.78 ± 0 µg/mL (≈ 0.842 µM); MIC (C. albicans; value in parentheses): 0.84 µM; MIC SA [1]: > 50 µg/mL; MIC ([1]; value in parentheses): > 54.0 µM; MIC AF (A. flavus): 2.6 ± 0.5 µg/mL (≈ 2.81 µM); MIC (A. flavus; value in parentheses): 2.81 µM; MIC EC (E. coli): > 50 µg/mL; MIC (E. coli; value in parentheses): > 54.0 µM; MIC BC (B. cereus): > 50 µg/mL; MIC (B. cereus; value in parentheses): > 54.0 µM; MIC TM (T. mentagrophytes): 3.13 ± 0 µg/mL (≈ 3.38 µM); MIC (T. mentagrophytes; value in parentheses): 3.38 µM; MIC PA (P. aeruginosa): > 50 µg/mL; MIC (P. aeruginosa; value in parentheses): > 54.0 µM; MIC PC (P. chrysogenum): 1.56 ± 0 µg/mL (≈ 1.68 µM); MIC (P. chrysogenum; value in parentheses): 1.68 µM; MIC SC (S. cerevisiae): 1.56 ± 0 µg/mL (≈ 1.68 µM); MIC (S. cerevisiae; value in parentheses): 1.68 µM
OB1OCC=C1c1ccccc1F [Compound 6d] | > 50 | > 281 | > 50 | > 281 | > 50 | > 281 | > 50 | > 281 | > 50 | > 281 | > 50 | > 281 | > 50 | > 281 | 25 | 140 | 21 ± 4 | 118 | 
OB1OCC=C1c1ccccc1Cl [Compound 6g] | > 50 | > 258 | > 50 | > 258 | > 50 | > 258 | > 50 | > 258 | > 50 | > 258 | > 50 | > 258 | > 50 | > 258 | > 50 | > 258 | 50 | 258 | 
Cc1cc(F)cc(C2=CCOB2O)c1 [Compound 6k] | > 50 | > 260 | > 50 | > 260 | 42 ± 8 | 219 |  | > 260 | > 50 | > 260 | 42 ± 8 | 219 | > 50 | > 260 | 12.5 | 65.1 | 12.5 | 65.1 | 
